{"source": "the supplement of paper PMC4862054", "data": [{"system": "MDA-MB-436", "assay": "normalised response (% of control), CellTiter-Glo; higher = more viable cells (100 = DMSO, 0 = benzethonium chloride kill control)", "details": "incubation time: 72 h", "in_short": "(§1)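 Each value is the plate-normalised signal at one concentration of the series. Breast cancer cell lines (20 µl suspension) were incubated 72 h in 384-well plates with compound at 5 concentrations in 10-fold steps over a compound-specific 10,000-fold range. CellTox Green and then CellTiter-Glo were read, and each plate was scaled to 0.1 % DMSO (100) and a positive kill control (0).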", "units": {"normalised response": "%"}, "values": [{"smiles": "CCN(CC)CCCC(C)Nc1ccnc2cc(Cl)ccc12", "note": "(stereo not drawn) [Chloroquine] (10 nM)", "normalised response": 113}, {"smiles": "CC1(COc2ccc3c(c2)ncn3-c2ccc3cccc(N4CCC(N)CC4)c3n2)COC1", "note": "[Crenolanib] (10 nM)", "normalised response": 94.8}, {"smiles": "CC(C)(C)c1nc(-c2cccc(NS(=O)(=O)c3c(F)cccc3F)c2F)c(-c2ccnc(N)n2)s1", "note": "[Dabrafenib] (2.5 nM)", "normalised response": 101}, {"smiles": "Nc1ccn([C@@H]2O[C@H](CO)[C@@H](O)C2(F)F)c(=O)n1", "note": "[Gemcitabine] (1 nM)", "normalised response": 95.5}, {"smiles": "O=C(O)CNC(=O)c1c(O)c2ccccc2n(Cc2ccccc2)c1=O", "note": "[IOX-2] (50 nM)", "normalised response": 96.9}, {"smiles": "CC(=O)[C@]1(O)Cc2c(O)c3c(c(O)c2[C@@H](O[C@H]2C[C@H](N)[C@H](O)[C@H](C)O2)C1)C(=O)c1ccccc1C3=O", "note": "[Idarubicin] (1 nM)", "normalised response": 113}, {"smiles": "C/C(=C\\c1csc(C)n1)[C@@H]1C[C@@H]2O[C@]2(C)CCC[C@H](C)[C@H](O)[C@@H](C)C(=O)C(C)(C)[C@@H](O)CC(=O)N1", "note": "[Ixabepilone] (1 nM)", "normalised response": 99.3}, {"smiles": "CN(C)C(=N)NC(=N)N", "note": "[Metformin] (100 nM)", "normalised response": 95.4}, {"smiles": "CC[C@H](CO)Nc1nc(NCc2ccccc2)c2ncn(C(C)C)c2n1", "note": "[Seliciclib] (10 nM)", "normalised response": 110}, {"smiles": "O=[N+]([O-])c1ccc2c(c1)S(=O)(=O)C=C2", "note": "[Stattic] (50 nM)", "normalised response": 96.4}, {"smiles": "O=C(CCCCCCC(=O)Nc1ccccc1)NO", "note": "[Vorinostat] (10 nM)", "normalised response": 105}]}, {"system": "MDA-MB-468", "assay": "normalised response (% of control), CellTiter-Glo; higher = more viable cells (100 = DMSO, 0 = benzethonium chloride kill control)", "details": "incubation time: 72 h", "in_short": "as §1", "units": {"normalised response": "%"}, "values": [{"smiles": "CCn1c(C(=O)N(C2CC2)C2CC2)cc2c3c(ncn3C)c(Nc3cc(C)n(C)n3)nc21", "note": "(1 nM)", "normalised response": 100}, {"smiles": "CCn1c(C(=O)N(C2CC2)C2CC2)cc2c3c(ncn3C)c(Nc3cc(C)n(C)n3)nc21", "note": "(10 nM)", "normalised response": 106}, {"smiles": "COc1ccc(S(=O)(=O)Nc2cccnc2Nc2ccc(O)cc2)cc1", "note": "[ABT-751] (10 nM)", "normalised response": 98.2}, {"smiles": "CN[C@@H](C)C(=O)N[C@H]1CN(C(=O)CC(C)C)CC[C@H]2CC[C@@H](C(=O)NC(c3ccccc3)c3ccccc3)N2C1=O", "note": "[AT-406] (1 nM)", "normalised response": 98.3}, {"smiles": "CN[C@@H](C)C(=O)N[C@H]1CN(C(=O)CC(C)C)CC[C@H]2CC[C@@H](C(=O)NC(c3ccccc3)c3ccccc3)N2C1=O", "note": "[AT-406] (10 nM)", "normalised response": 103}, {"smiles": "Cc1cc(Nc2nc(N[C@@H](C)c3ncc(F)cn3)ncc2Cl)[nH]n1", "note": "[AZD1480] (1 nM)", "normalised response": 98.1}, {"smiles": "CNC(=O)c1ccccc1Sc1ccc2c(/C=C/c3ccccn3)n[nH]c2c1", "note": "[Axitinib] (10 nM)", "normalised response": 96.8}, {"smiles": "CC(O)(CS(=O)(=O)c1ccc(F)cc1)C(=O)Nc1ccc(C#N)c(C(F)(F)F)c1", "note": "(stereo not drawn) [Bicalutamide] (10 nM)", "normalised response": 102}, {"smiles": "CCNC(=O)CCC/C=C\\C[C@@H]1[C@@H](/C=C/[C@@H](O)CCc2ccccc2)[C@H](O)C[C@@H]1O", "note": "[Bimatoprost] (5.5 nM)", "normalised response": 96.5}, {"smiles": "COc1cc(Nc2c(C#N)cnc3cc(OCCCN4CCN(C)CC4)c(OC)cc23)c(Cl)cc1Cl", "note": "[Bosutinib] (10 nM)", "normalised response": 107}, {"smiles": "CCN(CC)CCCC(C)Nc1ccnc2cc(Cl)ccc12", "note": "(stereo not drawn) [Chloroquine] (10 nM)", "normalised response": 95.2}, {"smiles": "CC1(COc2ccc3c(c2)ncn3-c2ccc3cccc(N4CCC(N)CC4)c3n2)COC1", "note": "[Crenolanib] (10 nM)", "normalised response": 102}, {"smiles": "CC(C)(C)c1nc(-c2cccc(NS(=O)(=O)c3c(F)cccc3F)c2F)c(-c2ccnc(N)n2)s1", "note": "[Dabrafenib] (2.5 nM)", "normalised response": 105}, {"smiles": "Nc1ccn([C@@H]2O[C@H](CO)[C@@H](O)C2(F)F)c(=O)n1", "note": "[Gemcitabine] (1 nM)", "normalised response": 95.7}, {"smiles": "O=C(O)CNC(=O)c1c(O)c2ccccc2n(Cc2ccccc2)c1=O", "note": "[IOX-2] (50 nM)", "normalised response": 92.9}, {"smiles": "CC(=O)[C@]1(O)Cc2c(O)c3c(c(O)c2[C@@H](O[C@H]2C[C@H](N)[C@H](O)[C@H](C)O2)C1)C(=O)c1ccccc1C3=O", "note": "[Idarubicin] (1 nM)", "normalised response": 97.7}, {"smiles": "C/C(=C\\c1csc(C)n1)[C@@H]1C[C@@H]2O[C@]2(C)CCC[C@H](C)[C@H](O)[C@@H](C)C(=O)C(C)(C)[C@@H](O)CC(=O)N1", "note": "[Ixabepilone] (1 nM)", "normalised response": 104}, {"smiles": "CN(C)C(=N)NC(=N)N", "note": "[Metformin] (100 nM)", "normalised response": 88}, {"smiles": "CC[C@H](CO)Nc1nc(NCc2ccccc2)c2ncn(C(C)C)c2n1", "note": "[Seliciclib] (10 nM)", "normalised response": 98.9}, {"smiles": "O=[N+]([O-])c1ccc2c(c1)S(=O)(=O)C=C2", "note": "[Stattic] (50 nM)", "normalised response": 96.9}, {"smiles": "O=C(CCCCCCC(=O)Nc1ccccc1)NO", "note": "[Vorinostat] (10 nM)", "normalised response": 106}]}, {"system": "HCC1937", "assay": "normalised response (% of control), CellTiter-Glo; higher = more viable cells (100 = DMSO, 0 = benzethonium chloride kill control)", "details": "incubation time: 72 h", "in_short": "as §1", "units": {"normalised response": "%"}, "values": [{"smiles": "CCn1c(C(=O)N(C2CC2)C2CC2)cc2c3c(ncn3C)c(Nc3cc(C)n(C)n3)nc21", "note": "(1 nM)", "normalised response": 105}, {"smiles": "CCn1c(C(=O)N(C2CC2)C2CC2)cc2c3c(ncn3C)c(Nc3cc(C)n(C)n3)nc21", "note": "(10 nM)", "normalised response": 99.5}, {"smiles": "COc1ccc(S(=O)(=O)Nc2cccnc2Nc2ccc(O)cc2)cc1", "note": "[ABT-751] (10 nM)", "normalised response": 97.5}, {"smiles": "CN[C@@H](C)C(=O)N[C@H]1CN(C(=O)CC(C)C)CC[C@H]2CC[C@@H](C(=O)NC(c3ccccc3)c3ccccc3)N2C1=O", "note": "[AT-406] (1 nM)", "normalised response": 101}, {"smiles": "CN[C@@H](C)C(=O)N[C@H]1CN(C(=O)CC(C)C)CC[C@H]2CC[C@@H](C(=O)NC(c3ccccc3)c3ccccc3)N2C1=O", "note": "[AT-406] (10 nM)", "normalised response": 104}, {"smiles": "Cc1cc(Nc2nc(N[C@@H](C)c3ncc(F)cn3)ncc2Cl)[nH]n1", "note": "[AZD1480] (1 nM)", "normalised response": 96.4}, {"smiles": "CNC(=O)c1ccccc1Sc1ccc2c(/C=C/c3ccccn3)n[nH]c2c1", "note": "[Axitinib] (10 nM)", "normalised response": 100}, {"smiles": "CC(O)(CS(=O)(=O)c1ccc(F)cc1)C(=O)Nc1ccc(C#N)c(C(F)(F)F)c1", "note": "(stereo not drawn) [Bicalutamide] (10 nM)", "normalised response": 98.6}, {"smiles": "CCNC(=O)CCC/C=C\\C[C@@H]1[C@@H](/C=C/[C@@H](O)CCc2ccccc2)[C@H](O)C[C@@H]1O", "note": "[Bimatoprost] (5.5 nM)", "normalised response": 96}, {"smiles": "COc1cc(Nc2c(C#N)cnc3cc(OCCCN4CCN(C)CC4)c(OC)cc23)c(Cl)cc1Cl", "note": "[Bosutinib] (10 nM)", "normalised response": 95.5}, {"smiles": "CCN(CC)CCCC(C)Nc1ccnc2cc(Cl)ccc12", "note": "(stereo not drawn) [Chloroquine] (10 nM)", "normalised response": 95.3}, {"smiles": "CC1(COc2ccc3c(c2)ncn3-c2ccc3cccc(N4CCC(N)CC4)c3n2)COC1", "note": "[Crenolanib] (10 nM)", "normalised response": 104}, {"smiles": "CC(C)(C)c1nc(-c2cccc(NS(=O)(=O)c3c(F)cccc3F)c2F)c(-c2ccnc(N)n2)s1", "note": "[Dabrafenib] (2.5 nM)", "normalised response": 98.4}, {"smiles": "Nc1ccn([C@@H]2O[C@H](CO)[C@@H](O)C2(F)F)c(=O)n1", "note": "[Gemcitabine] (1 nM)", "normalised response": 95.7}, {"smiles": "O=C(O)CNC(=O)c1c(O)c2ccccc2n(Cc2ccccc2)c1=O", "note": "[IOX-2] (50 nM)", "normalised response": 93.6}, {"smiles": "CC(=O)[C@]1(O)Cc2c(O)c3c(c(O)c2[C@@H](O[C@H]2C[C@H](N)[C@H](O)[C@H](C)O2)C1)C(=O)c1ccccc1C3=O", "note": "[Idarubicin] (1 nM)", "normalised response": 99.9}]}]}
